Assay results as given in the NIST ThermoML archive (doi:10.1021/je901092b).
± gives the expanded uncertainty stated by the source.

Details: 101.33 kPa, Liquid; for mass density: Pycnometric method

Row | SMILES | viscosity (323.15 K) [mPa·s] | mass density (323.15 K) [kg/m3] | viscosity (328.15 K) [mPa·s] | mass density (328.15 K) [kg/m3] | viscosity (333.15 K) [mPa·s] | mass density (333.15 K) [kg/m3] | viscosity (338.15 K) [mPa·s] | mass density (338.15 K) [kg/m3] | viscosity (343.15 K) [mPa·s] | mass density (343.15 K) [kg/m3] | viscosity (348.15 K) [mPa·s] | mass density (348.15 K) [kg/m3] | viscosity (353.15 K) [mPa·s] | mass density (353.15 K) [kg/m3] | viscosity (363.15 K) [mPa·s] | mass density (363.15 K) [kg/m3] | viscosity (373.15 K) [mPa·s] | mass density (373.15 K) [kg/m3] | viscosity (378.15 K) [mPa·s] | mass density (378.15 K) [kg/m3] | other results
1 | CCCCn1cc[n+](C)c1.[I-] [1-butyl-3-methylimidazolium iodide] | 134.23 ± 14 | 1418 ± 10 | 105.34 ± 8.7 | 1414 ± 10 | 81.51 ± 5.3 | 1406 ± 10 | 65.85 ± 3.3 | 1400 ± 10 | 53.43 ± 2.2 | 1398 ± 10 | 44.68 ± 1.9 | 1396 ± 10 | 36.52 ± 1.6 | 1394 ± 10 | 26.11 ± 0.98 | 1388 ± 10 | 20.43 ± 0.64 | 1382 ± 10 | 18.1 ± 0.66 | 1376 ± 10 | viscosity (299.15 K): 593.68 ± 130 mPa·s; mass density (299.15 K): 1434 ± 10 kg/m3; viscosity (304.15 K): 442.64 ± 89 mPa·s; mass density (304.15 K): 1432 ± 10 kg/m3; viscosity (308.15 K): 336.95 ± 61 mPa·s; mass density (308.15 K): 1430 ± 10 kg/m3; viscosity (313.15 K): 227.98 ± 34 mPa·s; mass density (313.15 K): 1426 ± 10 kg/m3; viscosity (318.15 K): 173.86 ± 21 mPa·s; mass density (318.15 K): 1422 ± 10 kg/m3; viscosity (358.15 K): 30.4 ± 1.2 mPa·s; mass density (358.15 K): 1392 ± 10 kg/m3; viscosity (368.15 K): 22.5 ± 0.76 mPa·s; mass density (368.15 K): 1386 ± 10 kg/m3; viscosity (383.15 K): 15.22 ± 0.61 mPa·s; mass density (383.15 K): 1370 ± 10 kg/m3; viscosity (388.15 K): 13.11 ± 0.52 mPa·s; mass density (388.15 K): 1360 ± 10 kg/m3
2 | CCCCCCn1cc[n+](C)c1.[I-] [1-hexyl-3-methylimidazolium iodide] | 245.55 ± 37 | 1318 ± 10 | 190.14 ± 24 | 1316 ± 10 | 146.47 ± 16 | 1314 ± 10 | 116.13 ± 10 | 1312 ± 10 | 88.04 ± 6.1 | 1310 ± 10 | 73.85 ± 3.8 | 1308 ± 10 | 60.63 ± 2.5 | 1306 ± 10 | 42.23 ± 1.6 | 1302 ± 10 | 30.45 ± 1.2 | 1298 ± 10 | 26.62 ± 0.93 | 1296 ± 10 | viscosity (305.15 K): 809.79 ± 200 mPa·s; mass density (305.15 K): 1326 ± 10 kg/m3; viscosity (309.15 K): 600.07 ± 140 mPa·s; mass density (309.15 K): 1324 ± 10 kg/m3; viscosity (314.15 K): 432.98 ± 87 mPa·s; mass density (314.15 K): 1322 ± 10 kg/m3; viscosity (318.15 K): 334.25 ± 59 mPa·s; mass density (318.15 K): 1320 ± 10 kg/m3; viscosity (359.15 K): 48.47 ± 2.1 mPa·s; mass density (359.15 K): 1304 ± 10 kg/m3; viscosity (383.15 K): 23.19 ± 0.82 mPa·s; mass density (383.15 K): 1294 ± 10 kg/m3; viscosity (388.15 K): 20.3 ± 0.74 mPa·s; mass density (388.15 K): 1292 ± 10 kg/m3
3 | CCCCCCCC[n+]1ccn(C)c1.[I-] [1-methyl-3-octyl-1H-imidazolium iodide] | 296.66 ± 50 | 1240 ± 10 | 229.09 ± 33 | 1234 ± 10 | 174.35 ± 21 | 1230 ± 10 | 138.53 ± 14 | 1228 ± 10 | 104.81 ± 8.5 | 1224 ± 10 | 89.02 ± 5.6 | 1218 ± 10 | 73.17 ± 4 | 1212 ± 10 | 49.6 ± 1.9 | 1206 ± 10 | 35.57 ± 1.4 | 1200 ± 10 | 31.43 ± 1.1 | 1196 ± 10 | viscosity (300.15 K): 1306.3 ± 390 mPa·s; mass density (300.15 K): 1258 ± 10 kg/m3; viscosity (303.15 K): 981.11 ± 260 mPa·s; mass density (303.15 K): 1254 ± 10 kg/m3; viscosity (308.15 K): 726.71 ± 180 mPa·s; mass density (308.15 K): 1250 ± 10 kg/m3; viscosity (313.15 K): 524.3 ± 110 mPa·s; mass density (313.15 K): 1246 ± 10 kg/m3; viscosity (319.15 K): 404.37 ± 77 mPa·s; mass density (319.15 K): 1242 ± 10 kg/m3; viscosity (358.15 K): 58.41 ± 2.5 mPa·s; mass density (358.15 K): 1210 ± 10 kg/m3; viscosity (368.15 K): 43.21 ± 1.7 mPa·s; mass density (368.15 K): 1204 ± 10 kg/m3
